Results: patent US10814010B2, “FOXC2 inhibitor and methods of use thereof” (The Board of Regents of The University of Texas System, priority 2018, dated 2020)

Tests used:
[1] = biological target: T1, endogenously expressed FOXC2 (Homo sapiens, UniProt Q99958); experiment: Drug affinity responsive target stability (DARTS) assay with MDA-MB-231 cell lysate; type: binding; conditions: 20 μM, Western blot
T1 construct: endogenous in cells; host or cells: MDA-MB-231
T1 sequence (Q99958 1-501): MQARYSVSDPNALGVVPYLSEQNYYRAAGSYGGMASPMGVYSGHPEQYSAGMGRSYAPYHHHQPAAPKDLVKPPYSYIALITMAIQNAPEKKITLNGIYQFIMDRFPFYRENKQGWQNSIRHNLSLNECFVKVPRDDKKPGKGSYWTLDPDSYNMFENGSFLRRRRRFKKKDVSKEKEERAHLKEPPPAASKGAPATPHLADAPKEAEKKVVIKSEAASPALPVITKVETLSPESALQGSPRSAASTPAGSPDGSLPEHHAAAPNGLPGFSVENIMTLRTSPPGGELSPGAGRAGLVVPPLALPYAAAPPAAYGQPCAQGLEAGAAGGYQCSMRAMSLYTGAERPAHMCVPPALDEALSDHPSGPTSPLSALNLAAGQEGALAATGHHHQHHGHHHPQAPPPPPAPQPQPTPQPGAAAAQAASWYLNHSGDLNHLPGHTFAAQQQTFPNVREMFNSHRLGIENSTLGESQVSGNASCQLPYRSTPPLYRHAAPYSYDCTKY
Method: As recombinant FOXC2 was used for the screening and the binding affinity determination, it was important to examine if MC-1-F2 binds to endogenously expressed FOXC2. To this end, a drug affinity responsive target stability assay (DARTS) was performed for MC-1-F2 and MC-C with cell lysate of MDA-MB-231 cells (FIG. 2B). In DARTS, the binding of a small molecule to its cellular target increases protease resistance of the target protein (Pai et al., 2015).
MDA-MB-231 cell lysate was harvested and incubated with 600 μL of Triton X-100 lysis buffer (50 mM Tris-HCl, 150 mM NaCl, 1 mM EDTA, 1% Triton X-100, pH 8.0) with protease inhibitor and 150 μL of phosphate inhibitor was added. Then frozen overnight followed by addition of 66.7 μL of 10×TNC buffer (1 M Tris-HCl, 5 M NaCl, 1 M CaCl2, pH 8.0) and gently mixed. The lysate was further split into 2 test tubes: Tube (1) 300 μL, Tube (2) 300 μL of cell lysate. The samples were incubated in desired concentration of compounds for 1 hour at room temperature and gently mixed. Once done the lysate of each condition was further split into 5 test tubes for each pronase condition. Pronase stock solution was thawed prior to use and 2 μL of each concentration were added to each tube and allowed to incubate for 20-30 minutes, followed by the addition of SDS loading buffer to stop pronase digestion followed by Western blot analysis.

[2] = biological target: T2, DNA binding domain (DBD) of FOXC2 (Homo sapiens, UniProt Q99958); experiment: ELISA-like binding assay, immobilized DNA binding domain of FOXC2; conditions: biotinylated compound
T2 construct: His6 (N, cleaved yes); MBP (N, cleaved yes); made in house; host or cells: E. coli BL21(DE3)-RIPL
T2 sequence (Q99958 60-163): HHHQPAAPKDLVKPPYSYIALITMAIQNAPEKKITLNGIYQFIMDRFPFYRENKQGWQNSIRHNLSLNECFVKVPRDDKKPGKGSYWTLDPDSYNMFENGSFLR
Method: The binding affinity of MC-1-F2 to full-length FOXC2 was determined using an ELISA-like binding assay. In this assay, varying concentrations of biotinylated MC-1-F2 or biotinylated MC-C (control; FIG. 12) were incubated in the wells with immobilized recombinant full-length FOXC2 or the DNA binding domain (DBD) of FOXC2 (FIG. 2A). After washing off unbound ligand, the wells were incubated with streptavidin-conjugated Qdot655, followed by fluorescence measurement of the wells using a plate reader. […] This is important for the specificity of MC-1-F2 to FOXC2 as several forkhead transcription factors share a very similar DNA-binding domain.
Clear bottom, black wall, 96 well plate (Corning) was coated with 1 μg/mL of full length FOXC2 or DNA binding domain (DBD) of FOXC2 protein in sensitizing buffer (0.621 g NaHCO3, 0.275 g Na2CO3 in 100 mL of water pH=9.5) overnight at 4° C. Wells were washed 3 times with 200 μL of wash buffer (lx PBS with 0.05% Tween-20). Wells were blocked with blocking buffer (1% BSA in 1×PBS with 0.05% Tween-20) for 1 hour at room temperature. 50 μL of serial dilutions of biotinylated compound in blocking buffer were added to each well and incubated for 1 hour at room temperature. Followed was the addition of […] of 20 nM of strepavidin-Qdot655 in blocking buffer for 1 hour at room temperature. […] Fluorescence was measured using a plate reader (Ex. 495, Em. 655).

[3] = tested on: DU145 cells; experiment: MTT cell viability assay, DU145; type: cell-based; conditions: Homo sapiens, DU-145, 24 hour treatment
Method: In order to determine the EC50 of MC-1-F2, an MTT assay on cell viability was performed in both DU145 and PC3.
(§1) Cell viability was assessed by MTT (3-(4,5-Dimethylthiazol-2-yl)-2,5-Diphenyltetrazolium Bromide) assay 5,000 cells were seeded on a 96-well cell culture plate and were incubated for at least 24 hours prior to drug treatment. The MTT reagent (Fisher Scientific) was added to the culture medium 3 hours prior to the end of compound incubation. The reaction took place in the 37° C. incubator with 5% CO2 for 3 hours. Cell culture medium was then removed from the wells. Cells with the insoluble purple formazan were lysed with DMSO for 10 mins at room temperature, 200 μL per well. Absorbance was read at 570 nm using a plate reader.

[4] = tested on: PC3 cells; experiment: MTT cell viability assay, PC3; type: cell-based; conditions: Homo sapiens, PC-3, 24 hour treatment
From the text: Inhibition of EMT in CRPC could lead to a new form of therapeutics to aid once androgen-independence is achieved. However, in order for MC-1-F2 to be considered an effective chemotherapeutic agent, its EC50 in prostate cancer needed to be determined as well as how it compares to other chemotherapeutic agents on the market and whether it is able to inhibit chemoresistance or lower the sensitivity of CRPC to commercially available drugs. In order to determine the EC50 of MC-1-F2, an MTT assay on cell viability was performed in both DU145 and PC3. […] These doses are higher than those encountered with breast cancer cell lines. This is most likely due to the lower FOXC2 expression levels founds in prostate cell lines when compared to the breast cell lines.
as §1

proteolysis of β-actin (DARTS) ([1]; pronase): did not affect the proteolysis β-actin
Kd [2]: > 100 µM
EC50 [3]: 48.1 µM
EC50 [4]: 46.6 µM
Structure (SMILES): N=C(N)NCCCCNc1nc(Nc2ccc(Oc3ccccc3)cc2)nc(N2CCN(c3nc(N)nc(Nc4ccc(N5CCOCC5)cc4)n3)CC2)n1 [MC-1-F2]
protection of FOXC2 from pronase-mediated proteolysis (DARTS) [1]: protection of FOXC2 from pronase-mediated proteolysis
